Experimental findings from PubChem BioAssay (NCI) are described below.

Test in all cases: NCI-60 cell line screen, 48 h
The subject of assay [1] is COLO 205 colon.
Assay [2] has as its system NCI-H460 lung.
Assay [3] concerns OVCAR-5 ovarian.
The subject of assay [4] is SNB-19 CNS.
Assay [5] deals with MDA-MB-435.
In assay [6] the test system is A549 NSCLC.
The test system of assay [7] is NCI-H226 lung.
For assay [8], the system named is SF-268 CNS.
Assay [9] concerns BT-549 breast.
The test system of assay [10] is MDA-MB-231 breast.

“And” between values parts separate entries of the source, which are not always exact repeats. Equal entries are not always repeated.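 Growth conditions: 96-well plates. Treatment: test compound, 48 hours, 5 concentrations. Analysis: linear interpolation between bracketing concentrations; unreached endpoints set to highest concentration. The concentration for 50% growth inhibition is given as GI50. At the TGI there is no net growth.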 Where a SMILES comes first, the peptide text is derived from it. [ ]: non-standard residue; d: D form. The star is where a group is joined. Bn2Val = CC(C)[C@@H](C(=O)*)N(Cc1ccccc1)Cc1ccccc1; NH(3,4-diMeO-benzyl) = COc1ccc(CN*)cc1OC; NMeV = CN[C@H](C(=O)O)C(C)C; dNMeA = CN[C@H](C)C(=O)O Bounds are passed on as bounds.

As for `COC(=O)c1c2c(c(C)[n+]([O-])c1C)C(=O)C=CC2=O`, the GI50 in assay [1] is 1.64 µM; in assay [2] it was 2.72 µM; in [3], 1.76 µM; in [4] it was 1.67 µM; in [5], 1.79 µM; in [6], 3.12 µM. The GI50 in [7] was 1.42 µM; in [8], 2.05 µM; in [9] it was 1.72 µM; in assay [10], 2.68 µM. The TGI was 3.35 µM in assay [1]; 7.4 µM in assay [2]; 3.23 µM in assay [3]; 3.31 µM in [4]; 3.31 µM in assay [5]; 11.6 µM in assay [6]. The TGI in assay [7] was determined as 2.98 µM; in [8], 5.52 µM; in assay [9] it was 3.14 µM; in assay [10] it was 8.28 µM.

With `S=C1NCCN1C1=Nc2ccccc2CO1`, the GI50 in [1], in assay [2], in assay [3], in [4], in assay [5] and in assay [6] was more than 100 µM throughout. For the same molecule, the GI50 in assay [7], in assay [8], in [9] and in [10] was more than 100 µM in each case. For the same molecule, the TGI in assay [1], in assay [2], in assay [3], in assay [4], in [5] and in assay [6] was more than 100 µM in each case. Further, the TGI in assay [7], in assay [8], in [9] and in [10] was more than 100 µM in each case.

As for `C[C@@H]1Cc2c([nH]c3ccccc23)[C@@H](c2c(F)cc(/C=C/C(=O)O)cc2F)N1CC(C)(C)F`, the GI50 in assay [1] is 16.5 µM; in assay [2] it was 11.5 µM; in assay [3], 22.2 µM; in assay [4] it was 13.7 µM; in assay [5], 14 µM; in assay [6] it was 11.6 µM. The GI50 in [7] was 18.2 µM; in [8] it was 14.2 µM; in assay [9], 11.3 µM; in [10], 18.4 µM. Also, the TGI is 39.8 µM in [1]; 27.8 µM in [2]; 46.8 µM in [3]; 32.3 µM in assay [4]; 31 µM in assay [5]; 26.6 µM in assay [6]. For the same molecule, the TGI in assay [7] amounted to 45.2 µM; in [8], 31.8 µM; in [9] it was 26.3 µM; in assay [10] it was 38 µM.

Turning to `COc1ccc(CNC(=O)[C@@H](C)N(C)C(=O)[C@@H]2CCCN2C(=O)[C@H](C(C)C)N(C)C(=O)[C@@H](NC(=O)[C@H](C(C)C)N(Cc2ccccc2)Cc2ccccc2)C(C)C)cc1OC` (Bn2Val-V[NMeV]P[dNMeA]-{NH(3,4-diMeO-benzyl)}), the GI50 in assay [1] is 5.86 µM; in assay [2], 8.21 µM; in assay [3], 2.79 µM; in [4], more than 100 µM; in assay [5] it was 11.1 µM; in assay [6], 53.3 µM. Also, the GI50 is 13.7 µM in [7], 17.6 µM in assay [8], 9.43 µM in [9] and 10.8 µM in assay [10]. The TGI was 19.8 µM and 35.9 µM in assay [1]; 50 µM and 37.9 µM in assay [2]; 16.6 µM and 9.77 µM in [3]; 23.9 µM and > 100 µM in assay [4]; 19.7 µM and 24.1 µM in [5]; 50 µM and > 100 µM in [6]. Besides, the TGI in assay [7] is 15.3 µM and 31.3 µM; in assay [8] it was 14.8 µM and > 100 µM; in assay [9] it was 15.1 µM and 27.1 µM; in assay [10], 18.8 µM and 22.7 µM.

For the molecule `CC(=O)c1ccc(N(/C=C/C(=O)C(F)(F)F)CC(=O)c2ccc(Cl)c(Cl)c2)cc1`, the GI50 in assay [1] is 22.6 µM; in assay [2], 15.6 µM; in assay [3], 18.6 µM; in assay [4], 19.3 µM; in assay [5] it was 3.43 µM; in [6], 14.2 µM. Moreover, the GI50 was 10.9 µM in assay [7], 14.2 µM in assay [8], 19.9 µM in assay [9] and 11.6 µM in assay [10]. In addition, the TGI was 65 µM in [1]; more than 100 µM in assay [2]; 35.9 µM in assay [3]; 41.6 µM in assay [4]; 11.7 µM in assay [5]; 33.5 µM in [6]. The TGI in assay [7] is 27.3 µM; in assay [8], 31.5 µM; in assay [9], 38.9 µM; in assay [10] it was 25 µM.

Turning to `Cc1c(Cl)cccc1Nc1ncccc1C(=O)O`, the GI50 in [1] is 93.7 µM; in [2], 53 µM; in assay [3], more than 100 µM; in assay [4], more than 100 µM; in assay [5] it was 82.9 µM; in [6], more than 100 µM. Further, the GI50 was more than 100 µM in assay [7], more than 100 µM in [8], 61.2 µM in assay [9] and 92.3 µM in assay [10]. The TGI in [1], in assay [2], in [3], in assay [4], in assay [5] and in assay [6] was more than 100 µM each time. Further, the TGI in assay [7], in [8], in assay [9] and in [10] was more than 100 µM throughout.
